Tested on: IL-1b
Assay: Mouse BMDM IL-1b Assay
Format: cell-based
Settings: Macrophage; C57BL6 bone marrow derived macrophages; 200 ng/mL Ultrapure LPS-B5 3 hours, compound 30 minutes, 5 mM ATP 45 minutes; mouse IL-1b ELISA of supernatant
Procedure: Example 8: Mouse BMDM IL-1b Assay
Mouse bone marrow cells from C57BL6 tibia and femur were culture in complete Isocov's Media supplemented with 20 ng/mL MCSF (BMDM media) at a density of 50 million cells/15 cm Petri dish. Fresh media was changed every 3 days, and bone marrow derived macrophages were collected, washed, and counted on day 7. Cells were seeded into 96 well plates at a density of 5×10^4 cells per well in 100 uL of BMDM media and cultured overnight. The cells were stimulated at 37° C. with 200 ng/mL Ultrapure LPS-B5 for 3 hours before pre-diluted compounds were added. 30 minutes after compound addition, 5 mM ATP was added for the secondary stimulation for 45 minutes. After stimulation, the plates were briefly spun down, and 50 uL of supernatant was harvested from each well. ELISA for mouse IL-1b was performed with 1:10 and 1:100 diluted supernatant using pre-coated kits. IL-1b concentrations were calculated based on pre-titrated standards, and compound inhibition IC50 is generated using the Levenberg Marquardt damped lease-square method.

IC50 [nM]	SMILES
< 100	O=C(Nc1c2c(cc3c1CCC3)CCC2)NS(=O)(=O)c1cc2c(o1)C1CCC(C1)C2O (stereo not shown) [Compound 9, N-((1,2,3,5,6,7-hexahydro-s-indacen-4-yl)carbamoyl)-4-hydroxy-5,6,7,8-tetrahydro-4H-5,8-methanocyclohepta[b]furan-2-sulfonamide]
< 100	O=C(Nc1c2c(cc3c1CCC3)CCC2)NS(=O)(=O)c1cc2c(o1)C1CCC(C1)C2=NO (stereo not shown) [Compound 11, N-((1,2,3,5,6,7-hexahydro-s-indacen-4-yl)carbamoyl)-4-(hydroxyimino)-5,6,7,8-tetrahydro-4H-5,8-methanocyclohepta[b]furan-2-sulfonamide]
< 100	C[C@@]1(O)c2cc(S(=O)(=O)NC(=O)Nc3c4c(cc5c3CCC5)CCC4)oc2C2CCC1CC2 [Compound 43, (S)-N-((1,2,3,5,6,7-hexahydro-s-indacen-4-yl)carbamoyl)-4-hydroxy-4-methyl-5,6,7,8-tetrahydro-4H-5,8-ethanocyclohepta[b]furan-2-sulfonamide]
100 to 1000	O=C(Nc1c2c(cc3c1CCC3)CCC2)NS(=O)(=O)c1ccc2c(c1)C(O)C1CCC2CC1 (stereo not shown) [Compound 33, N-((1,2,3,5,6,7-hexahydro-s-indacen-4-yl)carbamoyl)-9-hydroxy-6,7,8,9-tetrahydro-5H-5,8-ethanobenzo[7]annulene-2-sulfonamide]
< 100	O=C(Nc1c2c(cc3c1CCC3)CCC2)NS(=O)(=O)c1cc2c(o1)C1CCC(CC1)C2=NO [Compound 24, N-((1,2,3,5,6,7-hexahydro-s-indacen-4-yl)carbamoyl)-4-(hydroxyimino)-5,6,7,8-tetrahydro-4H-5,8-ethanocyclohepta[b]furan-2-sulfonamide]
< 100	C[C@@]1(O)c2cc(S(=O)(=O)NC(=O)Nc3c4c(cc5c3CCC5)CCC4)oc2[C@@H]2CC[C@H]1C2 [Compound 41, (4S,5S,8R)-N-((1,2,3,5,6,7-hexahydro-s-indacen-4-yl)carbamoyl)-4-hydroxy-4-methyl-5,6,7,8-tetrahydro-4H-5,8-methanocyclohepta[b]furan-2-sulfonamide]
100 to 1000	O=C(Nc1c2c(cc3c1CCC3)CCC2)NS(=O)(=O)c1ccc2c(c1)/C(=N\O)C1CCC2CC1 [Compound 35, (Z)-N-((1,2,3,5,6,7-hexahydro-s-indacen-4-yl)carbamoyl)-9-(hydroxyimino)-6,7,8,9-tetrahydro-5H-5,8-ethanobenzo[7]annulene-2-sulfonamide]
< 100	CC(C)c1ccc(F)c(C(C)C)c1NC(=O)NS(=O)(=O)c1cc2c(o1)C1CCC(C1)C2(C)O (stereo not shown) [Compound 36, N-((3-fluoro-2,6-diisopropylphenyl)carbamoyl)-4-hydroxy-4-methyl-5,6,7,8-tetrahydro-4H-5,8-methanocyclohepta[b]furan-2-sulfonamide]
< 100	O=C(Nc1c2c(cc3c1CCC3)CCC2)NS(=O)(=O)c1cc2c(o1)C1CCC(CC1)C2CO (stereo not shown) [Compound 46, N-((1,2,3,5,6,7-hexahydro-s-indacen-4-yl)carbamoyl)-4-(hydroxymethyl)-5,6,7,8-tetrahydro-4H-5,8-ethanocyclohepta[b]furan-2-sulfonamide]
< 100	O=C(Nc1c2c(cc3c1CCC3)CCC2)NS(=O)(=O)c1cc2c(o1)[C@@H]1CC[C@@H](C1)C2O (stereo partly drawn) [Compound 50, (5S,8R)-N-((1,2,3,5,6,7-hexahydro-s-indacen-4-yl)carbamoyl)-4-hydroxy-5,6,7,8-tetrahydro-4H-5,8-methanocyclohepta[b]furan-2-sulfonamide]
< 100	CC1(O)c2cc(S(=O)(=O)NC(=O)Nc3c4c(c(Br)c5c3CCC5)CCC4)oc2C2CCC1C2 (stereo not shown) [Compound 18, N-((8-bromo-1,2,3,5,6,7-hexahydro-s-indacen-4-yl)carbamoyl)-4-hydroxy-4-methyl-5,6,7,8-tetrahydro-4H-5,8-methanocyclohepta[b]furan-2-sulfonamide]
< 100	O=C(Nc1c2c(c(F)c3c1CCC3)CCC2)NS(=O)(=O)c1cc2c(o1)C1CCC(C1)C2O (stereo not shown) [Compound 31, N-((8-fluoro-1,2,3,5,6,7-hexahydro-s-indacen-4-yl)carbamoyl)-4-hydroxy-5,6,7,8-tetrahydro-4H-5,8-methanocyclohepta[b]furan-2-sulfonamide]
100 to 1000	CC(C)c1cc(F)cc(C(C)C)c1NC(=O)NS(=O)(=O)c1cc2c(o1)C1CCC(C1)C2(C)O (stereo not shown) [Compound 28, N-((4-fluoro-2,6-diisopropylphenyl)carbamoyl)-4-hydroxy-4-methyl-5,6,7,8-tetrahydro-4H-5,8-methanocyclohepta[b]furan-2-sulfonamide]
